Efficacy in %, pest or weed control and chromatographic logP data for 41 molecules are collected here from patent US20100168175A1, “ATPENINS” (priority 2008, published 2010).

Where two headings read alike, the source gives them in different places.

The test system of one series is Alternaria solani. Put plainly: Alternaria test (tomato)/protective. In kind it is in vivo. The note with it: young tomato plants, protective spray, application rate 500 (in ppm g/ha [sic]), evaluation 7 days after inoculation; 0% = control, 100% = no infection.
A further series relates to Sphaerotheca fuliginea. The series is described as follows: Sphaerotheca test (cucumber)/protective. In kind it is in vivo. The settings on record: Podosphaera fuliginea, 168 h, read-out: Efficacy in %.
The subject of the next series is Phytophthora infestans. The series is described as follows: whole plant or invertebrate. In kind it is in vivo. The note with it: in Solanum lycopersicum, 168 h, read-out: Efficacy in %.
A short description of series [1]: log P by HPLC on a reversed-phase column (C18), EEC Directive 79/831 Annex V.A8. In kind it is physicochemical. The settings on record: reversed-phase HPLC column (Kromasil 100 C18), H3PO4. How it is done: The stated log P values were determined in accordance with EEC Directive 79/831 Annex V.A8 by HPLC (High Performance Liquid Chromatography) on a reversed-phase column (C18).
HP1100 LC System (UV/DAD); Kromasil 100 C18, 3.5 μm, 75×2.0 mm; mobile phase A: acetonitrile (0.1% formic acid); mobile phase B: water (0.09% formic acid); linear gradient from 10% acetonitrile to 95% acetonitrile over 8.5 min, then 95% acetonitrile for a further 3.5 min; oven temperature 43° C.; flow rate: 0.5 ml/min
HP1100 LC System (UV/DAD); Kromasil 100 C18, 3.5 μm, 70×3.1 mm; mobile phase A: acetonitrile (0.1% phosphoric acid); mobile phase B: water (0.1% phosphoric acid); linear gradient from 10% acetonitrile to 95% acetonitrile over 8.5 min, then 95% acetonitrile for a further 3 min; oven temperature 43° C.; flow rate: 1 ml/min

Where [2] appears, read: young cucumber plants, protective spray, application rate 100 g/ha, evaluation 7 days after inoculation, 0% = control, 100% = no infection.

In turn, `C/C=C/CC(C)C(=O)c1c(O)c(OC)c(OC)[nH]c1=O` (stereo not drawn) [Compound I-1, 4-Hydroxy-5,6-dimethoxy-3-[(4E)-2-methylhex-4-enoyl]pyridin-2(1H)-one] displayed an Efficacy in % with Alternaria solani of 0%. Also, the pest or weed control at 100 g/ha in the series with Sphaerotheca fuliginea stood at 77%. For the same molecule, the pest or weed control at 500 ppm with Phytophthora infestans was 0%.
In the case of `COc1ccc(Cn2c(OC)c(OC)c(O)c(C(=O)CCCCc3ccccc3)c2=O)cc1` [Compound I-28], the pest or weed control at 500 ppm with Phytophthora infestans worked out at 50%.
With `CCC(=O)c1c(O)c(OC)c(OC)n(Cc2ccc(OC)cc2)c1=O` [Compound I-48, 4-Hydroxy-5,6-dimethoxy-1-(4-methoxybenzyl)-3-propanoylpyridin-2(1H)-one], in the series with Alternaria solani, the Efficacy in % was 57%. In addition, in the series on Phytophthora infestans, the pest or weed control at 500 ppm was found to be 63%.
With `COc1ccc(Cn2c(OC)c(OC)c(O)c(C(=O)c3ccc(C)cc3)c2=O)cc1` [Compound I-49], in the series with Phytophthora infestans, the pest or weed control at 500 ppm worked out at 50%.
Turning to `COc1[nH]c(=O)c(C(=O)c2ccc(C)cc2)c(O)c1OC` [Compound I-55], the pest or weed control at 500 ppm in the series with Phytophthora infestans was found to be 56%.
Regarding `COc1ccc(Cn2c(OC)c(OC)c(O)c(C(C)=O)c2=O)c(OC)c1` [Compound I-66], the Efficacy in % in the series on Alternaria solani is on record as 94%.
As to `COc1ccc(Cn2c(O)c(OC)c(O)c(C(=O)C3CCCC3)c2=O)c(OC)c1` [Compound I-69], the pest or weed control at 500 ppm in the series with Phytophthora infestans was determined as 50%.
In the series on Alternaria solani, `COc1[nH]c(=O)c(C(=O)CCc2ccccc2C)c(O)c1OC` [Compound I-72] had an Efficacy in % of 50%.
For `CCC(CC)CC(C)C(=O)c1c(O)c(OC)c(OC)[nH]c1=O` (stereo not drawn) [Compound I-74], the pest or weed control at 100 g/ha in the series on Sphaerotheca fuliginea was 100%.
For `COc1ccc(Cn2c(OC)c(OC)c(O)c(C(=O)Nc3ccc(-c4ccccc4)cc3)c2=O)cc1` [Compound I-75], the Efficacy in % in the series on Alternaria solani amounted to 70%.
In series [1], `COc1ccc(Cn2c(OC)c(OC)c(O)c(C(=O)CCc3ccc(Oc4ccc(Cl)cc4)cc3)c2=O)cc1` [Compound I-89] yielded a chromatographic logP of 5.75. Besides, the pest or weed control at 500 ppm in the series on Phytophthora infestans is 50%.
`COc1ccc(Cn2c(O)c(OC)c(O)c(C(=O)C3CCC(C)CC3)c2=O)cc1` (stereo not drawn) [Compound I-101]: the pest or weed control at 500 ppm with Phytophthora infestans is 78%.
On the same count and under the same terms, the figure for `COc1ccc(Cn2c(OC)c(OC)c(O)c(C(=O)Cc3ccc(Br)cc3)c2=O)cc1` [Compound I-107] is 78%.
`COc1c(O)c(C(=O)C(C)C)c(=O)n(Cc2ccccc2)c1OC` [Compound I-108] registered an Efficacy in % with Alternaria solani of 67%.
Consider `COc1ccc(Cn2c(OC)c(OC)c(O)c(C(=O)C3CC=CCC3)c2=O)c(OC)c1` (stereo not drawn) [Compound I-110], for which, in the series on Phytophthora infestans, the pest or weed control at 500 ppm came out at 78%.
For the molecule `COc1ccc(Cn2c(O)c(OC)c(O)c(C(=O)C3CCCCCC3)c2=O)cc1` [Compound I-111], the pest or weed control at 500 ppm in the series with Phytophthora infestans came to 89%.
For `COc1[nH]c(=O)c(C(=O)C2CCC(C)CC2)c(O)c1OC` (stereo not drawn) [Compound I-121], the Efficacy in % with Alternaria solani stood at 56%.
With `COc1[nH]c(=O)c(C(=O)c2ccc(Cl)cc2)c(O)c1OC` [Compound I-122], in the series with Phytophthora infestans, the pest or weed control at 500 ppm came to 56%.
For the molecule `CCCC(C)C(=O)c1c(O)c(OC)c(OC)[nH]c1=O` (stereo not drawn) [Compound I-129], the pest or weed control at 100 g/ha in the series on Sphaerotheca fuliginea worked out at 98%. Besides, the pest or weed control at 500 ppm with Phytophthora infestans came out at 56%.
Regarding `COc1[nH]c(=O)c(C(=O)C2CC2)c(O)c1OC` [Compound I-130], in the series with Phytophthora infestans, the pest or weed control at 500 ppm was found to be 56%.
Consider `COc1[nH]c(=O)c(C(=O)C(C)CC(C)C)c(O)c1OC` (stereo not drawn) [Compound I-138, 3-(2,4-Dimethylpentanoyl)-4-hydroxy-5,6-dimethoxypyridin-2(1H)-one], for which the pest or weed control at 100 g/ha in the series on Sphaerotheca fuliginea (setting [2]) is 96%.
Take `CCCC(C)c1ccccc1NC(=O)c1c(O)c(OC)c(OC)[nH]c1=O` (stereo not drawn) [Compound I-139]: the pest or weed control at 500 ppm with Phytophthora infestans amounted to 60%.
The molecule `COc1[nH]c(=O)c(C(=O)C(C)Cc2ccc(C(F)(F)F)cc2)c(O)c1OC` (stereo not drawn) [Compound I-141] had an Efficacy in % in the series with Alternaria solani of 80%. Also, in the series with Phytophthora infestans, the pest or weed control at 500 ppm is 70%.
`COc1[nH]c(=O)c(C(=O)C(C)C2CCCCC2)c(O)c1OC` (stereo not drawn) [Compound I-149] came in with an Efficacy in % in the series on Alternaria solani of 80%.
In the case of `COc1[nH]c(=O)c(C(=O)C(C)CCC(C)C)c(O)c1OC` (stereo not drawn) [Compound I-153], the Efficacy in % in the series with Alternaria solani is 90%.
Consider `COc1ccc(Cn2c(OC)c(OC)c(O)c(C(=O)C(C)C/C=C\COCc3ccccc3)c2=O)cc1` (stereo not drawn) [Compound I-157], for which, in the series with Alternaria solani, the Efficacy in % came to 50%.
Molecule `COc1[nH]c(=O)c(C(=O)C(C)CCCc2ccccc2)c(O)c1OC` (stereo not drawn) [Compound I-158] returned an Efficacy in % with Alternaria solani of 50%. Moreover, in the series with Phytophthora infestans, the pest or weed control at 500 ppm stood at 60%.
The molecule `COc1[nH]c(=O)c(C(=O)C(C)CC(C)Cc2ccccc2)c(O)c1OC` (stereo not drawn) [Compound I-160] came in with an Efficacy in % in the series with Alternaria solani of 70%.
The molecule `COc1[nH]c(=O)c(C(=O)C(C)CC2CCC(C(C)C)CC2)c(O)c1OC` (stereo not drawn) [Compound I-164] came in with an Efficacy in % in the series on Alternaria solani of 90%. Also, the chromatographic logP in series [1] worked out at 5.41.
Regarding `COc1ccc(Cn2c(OC)c(OC)c(O)c(C(=O)C(C)Cc3c(Cl)cccc3Cl)c2=O)cc1` (stereo not drawn) [Compound I-172, 3-[3-(2,6-Dichlorophenyl)-2-methylpropanoyl]-4-hydroxy-5,6-dimethoxy-1-(4-methoxybenzyl)pyridin-2(1H)-one], the pest or weed control at 500 ppm in the series with Phytophthora infestans came out at 71%.
Regarding `CCCCCC(C)C(=O)c1c(O)c(OC)c(O)n(Cc2ccc(OC)cc2)c1=O` (stereo not drawn) [Compound I-178, 4,6-Dihydroxy-5-methoxy-1-(4-methoxybenzyl)-3-(2-methylheptanoyl)pyridin-2(1H)-one], the pest or weed control at 500 ppm in the series with Phytophthora infestans worked out at 60%.
Still for that read-out and setting: the figure for `COc1ccc(Cn2c(O)c(OC)c(O)c(C(=O)C(C)CC(F)(F)F)c2=O)cc1` (stereo not drawn) [Compound I-180] is 50%.
`CCCC1CCC(C(=O)c2c(O)c(OC)c(OC)n(Cc3ccc(OC)cc3)c2=O)CC1` (stereo not drawn) [Compound I-184]: the Efficacy in % with Alternaria solani worked out at 56%.
Regarding `COc1[nH]c(=O)c(C(=O)C(C)CC(F)(F)F)c(O)c1OC` (stereo not drawn) [Compound I-197], in the series on Sphaerotheca fuliginea (setting [2]), the pest or weed control at 100 g/ha worked out at 100%.
Same read-out and setting: to `COc1[nH]c(=O)c(C(=O)C(C)c2ccc(Cl)cc2)c(O)c1OC` (stereo not drawn) [Compound I-204] belongs 85%.
In the case of `CCCCCCC(CCCC)C(=O)c1c(O)c(OC)c(OC)[nH]c1=O` (stereo not drawn) [Compound I-212], the Efficacy in % in the series with Alternaria solani was found to be 71%.
Consider `CCC(C)CC(C)C(=O)c1c(O)c(OC)c(OC)[nH]c1=O` (stereo not drawn) [Compound I-219], for which, in the series on Alternaria solani, the Efficacy in % is 50%.
The molecule `COc1[nH]c(=O)c(C(=O)c2ccc3ccccc3c2)c(O)c1OC` [Compound I-221] yielded an Efficacy in % in the series on Alternaria solani of 93%. In addition, the pest or weed control at 500 ppm with Phytophthora infestans stood at 80%.
In the series on Alternaria solani, `COc1[nH]c(=O)c(C(=O)C(C)CCC(C)(C)C)c(O)c1OC` (stereo not drawn) [Compound I-228] had an Efficacy in % of 80%.
The molecule `CCCCC(C)C(=O)c1c(O)c(OC)c(OC)[nH]c1=O` (stereo not drawn) [Compound I-230] yielded an Efficacy in % in the series with Alternaria solani of 70%. In addition, the pest or weed control at 100 g/ha in the series on Sphaerotheca fuliginea turned out to be 98%.
As for `COc1[nH]c(=O)c(C(=O)C(C)CCC2CCCC2)c(O)c1OC` (stereo not drawn) [Compound I-240], the pest or weed control at 100 g/ha with Sphaerotheca fuliginea (setting [2]) was determined as 98%.
